Blank lines part the entries; values can stand above or below the compound they belong to.
Legend:
[1] = molecular target: T1, 5-hydroxytryptamine receptor 2C (Homo sapiens) (UniProt P28335); experiment: Selectivity interaction (GPCR panel (PDSP screen)) EUB0001079a HTR2C; conditions: at 10 µM
T1 sequence (whole entry): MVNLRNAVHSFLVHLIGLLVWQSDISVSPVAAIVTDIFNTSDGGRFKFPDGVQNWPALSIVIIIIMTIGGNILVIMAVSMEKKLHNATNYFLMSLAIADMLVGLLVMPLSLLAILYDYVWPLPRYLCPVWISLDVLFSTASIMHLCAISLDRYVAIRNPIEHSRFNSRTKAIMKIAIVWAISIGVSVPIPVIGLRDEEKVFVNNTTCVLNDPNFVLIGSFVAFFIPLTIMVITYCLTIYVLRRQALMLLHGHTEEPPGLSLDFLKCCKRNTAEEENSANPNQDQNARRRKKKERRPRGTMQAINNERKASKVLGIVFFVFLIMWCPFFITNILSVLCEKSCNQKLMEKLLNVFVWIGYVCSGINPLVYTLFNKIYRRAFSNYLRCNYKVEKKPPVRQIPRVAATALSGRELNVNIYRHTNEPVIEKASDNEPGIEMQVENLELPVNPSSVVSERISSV

[2] = molecular target: Tyrosine-protein kinase FRK (Homo sapiens) (UniProt P42685); experiment: Selectivity interaction (KinomeScan (DiscoverX)) EUB0000045b FRK
Sequence of Tyrosine-protein kinase FRK (Homo sapiens) (P42685 whole entry): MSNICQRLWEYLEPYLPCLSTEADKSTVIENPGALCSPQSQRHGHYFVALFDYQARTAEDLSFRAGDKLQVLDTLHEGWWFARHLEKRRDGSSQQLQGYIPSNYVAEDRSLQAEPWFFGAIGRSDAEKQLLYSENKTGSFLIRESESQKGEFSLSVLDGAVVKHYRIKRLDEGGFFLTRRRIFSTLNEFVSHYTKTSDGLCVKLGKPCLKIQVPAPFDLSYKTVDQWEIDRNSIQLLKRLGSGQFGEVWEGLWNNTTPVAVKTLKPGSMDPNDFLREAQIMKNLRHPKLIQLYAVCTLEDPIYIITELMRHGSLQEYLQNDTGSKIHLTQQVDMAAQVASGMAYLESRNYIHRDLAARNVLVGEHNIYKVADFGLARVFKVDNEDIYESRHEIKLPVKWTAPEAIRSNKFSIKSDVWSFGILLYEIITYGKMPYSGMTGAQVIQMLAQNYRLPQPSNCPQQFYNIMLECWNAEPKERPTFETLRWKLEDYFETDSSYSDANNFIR

[3] = molecular target: T2, Mitogen-activated protein kinase kinase kinase kinase 2 (Homo sapiens) (UniProt Q12851); experiment: Selectivity interaction (Kinase panel (KiNativ target engagement assay in Jurkat cells)) EUB0001635a MAP4K2; format: cell-based; conditions: Selectivity number of off-targets 0.0, Selectivity number of targets 233.0, Source Knowledge https://www.sciencedirect.com/science/article/pii/S2451945619300674?via%3Dihub, at 1 µM
T2 sequence (whole entry): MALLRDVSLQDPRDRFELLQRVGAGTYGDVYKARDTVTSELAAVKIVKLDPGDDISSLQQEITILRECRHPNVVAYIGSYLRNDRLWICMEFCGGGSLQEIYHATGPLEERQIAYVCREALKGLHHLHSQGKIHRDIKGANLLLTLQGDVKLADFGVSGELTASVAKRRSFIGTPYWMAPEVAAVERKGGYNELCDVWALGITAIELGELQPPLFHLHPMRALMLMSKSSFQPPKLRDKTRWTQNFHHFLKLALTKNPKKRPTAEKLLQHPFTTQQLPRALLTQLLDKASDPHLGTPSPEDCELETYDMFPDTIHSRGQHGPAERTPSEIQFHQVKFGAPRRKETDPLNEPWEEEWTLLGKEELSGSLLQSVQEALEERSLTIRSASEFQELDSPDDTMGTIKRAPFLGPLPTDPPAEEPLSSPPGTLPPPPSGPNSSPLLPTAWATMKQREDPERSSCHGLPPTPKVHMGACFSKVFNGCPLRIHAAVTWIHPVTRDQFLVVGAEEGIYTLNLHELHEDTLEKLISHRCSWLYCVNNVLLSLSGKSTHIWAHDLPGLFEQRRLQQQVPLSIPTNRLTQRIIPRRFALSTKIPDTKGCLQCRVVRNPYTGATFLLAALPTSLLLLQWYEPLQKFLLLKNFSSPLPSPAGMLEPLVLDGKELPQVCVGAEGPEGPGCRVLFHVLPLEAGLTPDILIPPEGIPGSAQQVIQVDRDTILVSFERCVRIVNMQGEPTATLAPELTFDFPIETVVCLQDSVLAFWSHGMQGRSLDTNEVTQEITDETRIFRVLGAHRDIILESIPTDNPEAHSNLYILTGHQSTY

[4] = molecular target: T3, Atypical kinase COQ8B, mitochondrial (Homo sapiens) (UniProt Q96D53); conditions: at 10 µM
T3 sequence (whole entry): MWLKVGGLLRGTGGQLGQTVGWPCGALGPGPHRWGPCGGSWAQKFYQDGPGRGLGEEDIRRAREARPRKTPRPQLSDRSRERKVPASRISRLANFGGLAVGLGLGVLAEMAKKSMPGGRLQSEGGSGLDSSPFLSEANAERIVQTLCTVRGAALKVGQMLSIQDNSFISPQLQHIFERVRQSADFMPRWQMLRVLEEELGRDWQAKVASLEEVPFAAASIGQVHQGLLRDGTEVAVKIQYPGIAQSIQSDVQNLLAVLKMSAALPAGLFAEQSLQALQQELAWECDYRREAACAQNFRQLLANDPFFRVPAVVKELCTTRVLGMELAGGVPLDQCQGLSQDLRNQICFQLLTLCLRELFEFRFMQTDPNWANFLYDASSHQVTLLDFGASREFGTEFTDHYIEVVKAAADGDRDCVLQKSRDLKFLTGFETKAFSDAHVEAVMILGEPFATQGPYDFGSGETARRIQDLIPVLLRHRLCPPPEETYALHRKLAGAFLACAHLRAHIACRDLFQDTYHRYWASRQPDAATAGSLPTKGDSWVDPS

[5] = molecular target: T4, Peripheral plasma membrane protein CASK (Homo sapiens) (UniProt O14936); experiment: Selectivity interaction (LanthaScreen Eu Kinase Binding Assay) EUB0001632a CASK; conditions: at 10 µM
T4 sequence (whole entry): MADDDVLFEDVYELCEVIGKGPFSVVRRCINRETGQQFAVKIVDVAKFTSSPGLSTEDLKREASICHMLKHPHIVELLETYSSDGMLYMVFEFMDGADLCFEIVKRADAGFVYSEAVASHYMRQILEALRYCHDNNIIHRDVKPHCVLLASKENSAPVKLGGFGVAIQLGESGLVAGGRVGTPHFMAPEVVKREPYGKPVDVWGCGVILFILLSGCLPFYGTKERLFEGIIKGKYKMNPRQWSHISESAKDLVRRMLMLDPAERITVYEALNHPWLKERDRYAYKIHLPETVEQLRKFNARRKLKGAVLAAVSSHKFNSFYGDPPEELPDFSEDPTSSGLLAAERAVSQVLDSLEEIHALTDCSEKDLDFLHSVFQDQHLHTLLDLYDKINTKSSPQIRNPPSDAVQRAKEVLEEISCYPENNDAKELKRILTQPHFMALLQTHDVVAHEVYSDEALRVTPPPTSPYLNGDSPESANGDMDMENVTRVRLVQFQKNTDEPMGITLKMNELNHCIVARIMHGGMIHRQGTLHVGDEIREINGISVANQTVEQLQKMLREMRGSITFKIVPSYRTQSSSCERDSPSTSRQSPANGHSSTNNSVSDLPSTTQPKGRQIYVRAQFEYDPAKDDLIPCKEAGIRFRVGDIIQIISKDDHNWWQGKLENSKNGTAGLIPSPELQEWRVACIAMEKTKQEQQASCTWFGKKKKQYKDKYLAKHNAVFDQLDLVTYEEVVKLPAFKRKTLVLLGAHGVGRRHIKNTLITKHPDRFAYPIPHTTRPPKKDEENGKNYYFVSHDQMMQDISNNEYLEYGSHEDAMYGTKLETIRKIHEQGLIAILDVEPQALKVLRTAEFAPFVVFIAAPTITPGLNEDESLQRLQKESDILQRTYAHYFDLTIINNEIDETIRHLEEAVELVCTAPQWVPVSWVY

SMILES: Nc1cnc(N2CCc3cc(S(=O)(=O)Nc4c(F)cc(Cl)cc4F)cc(N4CCCC4=O)c32)nc1 [TP-020n]
% of inhibition [1]: -15.8%

SMILES: C=CC(=O)Nc1cc(-n2c(=O)ccc3cnc4ccc(-c5ccc(NS(C)(=O)=O)cc5)cc4c32)ccc1C
% of control ([2]; at 1 µM): 100%
% of control ([2]; at 10 µM): 98%

SMILES: C=CC(=O)Nc1ccc(C(=O)Nc2[nH]nc3c2CN(C(=O)N[C@H](CN(C)C)c2ccccc2)C3(C)C)cc1
% of engagement [3]: -6.1%

SMILES: Cc1cc([C@@H](C)Nc2ccccc2C(=O)O)c2nc(N3CCOCC3)cc(=O)n2c1 [AZD-6482]
% of control [4]: 79%

% of inhibition [5]: -92.6%
SMILES: Cn1cc(-n2cnc3c(NCc4nc5cc(Cl)c(Cl)cc5[nH]4)nc(N4CCOCC4)nc32)cn1

Reference: ChEMBL document CHEMBL5465560, “Selectivity Literature for EUbOPEN Chemogenomic Library” (2024)
